These results are taken from PubChem BioAssay (NCI).

Molecules are shown by their SMILES. Where “and” joins values, the source holds several entries; their conditions need not be identical. Identical values can stand only once.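 All cell lines were grown in 96-well plates and treated with compound for 48 hours. The concentration for 50% growth inhibition is given as GI50. TGI: concentration producing complete growth inhibition.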

Test systems include SK-MEL-5 melanoma; U251 CNS; RXF 393 renal; MALME-3M melanoma; COLO 205 colon; A549 NSCLC; SK-MEL-2 melanoma; RPMI-8226 leukemia; NCI-H522 lung; CAKI-1 renal.
Assay in all cases: NCI anticancer screen, dose series, 48 h

Take `C#CCOc1cccc(-c2ncnc3cc(NC(=O)CCl)ccc23)c1`: the GI50 was 0.684 µM in the assay with SK-MEL-5 melanoma; 0.149 µM with U251 CNS; 1.4 µM in the assay on RXF 393 renal; 1.28 µM with MALME-3M melanoma; 0.0976 µM in the assay on COLO 205 colon; 0.451 µM with A549 NSCLC. Moreover, the GI50 in the assay with SK-MEL-2 melanoma was 1.26 µM; with RPMI-8226 leukemia, 1.67 µM; in the assay with NCI-H522 lung it was 0.149 µM; in the assay on CAKI-1 renal, 0.2 µM. Further, the TGI was determined as 2.19 µM in the assay on SK-MEL-5 melanoma; 2.76 µM in the assay with U251 CNS; 3.16 µM with RXF 393 renal; 3.59 µM with MALME-3M melanoma; 2.77 µM in the assay on COLO 205 colon; 3.96 µM in the assay on A549 NSCLC. Also, the TGI with SK-MEL-2 melanoma worked out at 3.78 µM; in the assay on RPMI-8226 leukemia, 6.13 µM; in the assay with NCI-H522 lung, 1.71 µM; in the assay on CAKI-1 renal it was 1.76 µM.
In the case of `COc1ccc2c(C)cc(N/N=C/c3ccc(OC)c4ccccc34)nc2c1`, the TGI in the assay with SK-MEL-5 melanoma was found to be 30.3 µM; with U251 CNS, 13.2 µM; with RXF 393 renal, 39.8 µM; in the assay on MALME-3M melanoma, 36.3 µM; in the assay on COLO 205 colon it was 42 µM; in the assay on A549 NSCLC, 34.8 µM. For the same compound, the TGI is 37.2 µM in the assay on SK-MEL-2 melanoma, 8.64 µM in the assay with RPMI-8226 leukemia, 26.7 µM with NCI-H522 lung and 26.9 µM with CAKI-1 renal.
As for `Clc1nc(Cl)c2ncn(Cc3cccc(Cn4cnc5c(Cl)nc(Cl)nc54)c3)c2n1`, the GI50 in the assay on SK-MEL-5 melanoma was 2.47 µM; in the assay on U251 CNS, 3.91 µM; with RXF 393 renal it was 1.92 µM; in the assay on MALME-3M melanoma it was 3.11 µM; in the assay on COLO 205 colon it was 3.37 µM; in the assay on A549 NSCLC, 11.3 µM. In addition, the GI50 in the assay on SK-MEL-2 melanoma is 2.79 µM; in the assay with RPMI-8226 leukemia, 2.59 µM; with NCI-H522 lung, 2.9 µM; with CAKI-1 renal, 12 µM. The TGI worked out at 5.87 µM in the assay on SK-MEL-5 melanoma; 13.9 µM in the assay on U251 CNS; 3.72 µM in the assay with RXF 393 renal; 9.84 µM with MALME-3M melanoma; 11.3 µM in the assay with COLO 205 colon; 26.3 µM in the assay with A549 NSCLC. The TGI in the assay on SK-MEL-2 melanoma came out at 7.72 µM; in the assay on RPMI-8226 leukemia, 11.1 µM; in the assay with NCI-H522 lung it was 7.01 µM; with CAKI-1 renal, 26.3 µM.
Regarding `FC(F)(F)c1nc2nc(Cl)c(Cl)nc2n1CCCN1CCOCC1`, the TGI in the assay with SK-MEL-5 melanoma is greater than 100 µM; in the assay on U251 CNS, greater than 100 µM; with RXF 393 renal it was 68.1 µM; in the assay with MALME-3M melanoma, greater than 100 µM; in the assay with COLO 205 colon it was greater than 100 µM; in the assay with A549 NSCLC, greater than 100 µM. Further, the TGI in the assay with SK-MEL-2 melanoma was greater than 100 µM; in the assay on RPMI-8226 leukemia, greater than 100 µM; in the assay on NCI-H522 lung, greater than 100 µM; with CAKI-1 renal, 14.7 µM.
On to `Cc1nc(SCC(=O)Nc2nc(-c3ccc(Cl)cc3)cs2)n(Nc2ccccc2)c1C`, for which the GI50 in the assay on SK-MEL-5 melanoma was 2.24 µM; with U251 CNS, 3.13 µM; in the assay on RXF 393 renal, 2.98 µM; in the assay on MALME-3M melanoma it was 10.8 µM; with COLO 205 colon it was 4.13 µM; in the assay on A549 NSCLC, 2.9 µM. In addition, the GI50 was 10.1 µM with SK-MEL-2 melanoma, 3.55 µM in the assay with RPMI-8226 leukemia, 2.54 µM in the assay on NCI-H522 lung and 3.93 µM in the assay with CAKI-1 renal. In addition, the TGI was 6.31 µM in the assay with SK-MEL-5 melanoma; 13 µM with U251 CNS; 7.33 µM in the assay on RXF 393 renal; 37.6 µM with MALME-3M melanoma; 14.5 µM in the assay on COLO 205 colon; 11.6 µM with A549 NSCLC. In addition, the TGI with SK-MEL-2 melanoma was 27.6 µM; in the assay on RPMI-8226 leukemia, greater than 100 µM; with NCI-H522 lung, 13.7 µM; in the assay with CAKI-1 renal, 22.6 µM.
For the compound `Cc1cc2c(ccc3c(C)cc(=O)oc32)o1`, the TGI with SK-MEL-5 melanoma, in the assay with U251 CNS, with RXF 393 renal, with MALME-3M melanoma, in the assay on COLO 205 colon and in the assay on A549 NSCLC was greater than 100 µM throughout. The TGI in the assay with SK-MEL-2 melanoma, in the assay with RPMI-8226 leukemia, in the assay with NCI-H522 lung and with CAKI-1 renal was greater than 100 µM throughout.
Regarding `CC(=O)OCC1OC(n2c(-c3ccc(Cl)cc3)ccc(C#N)c2=S)C(OC(C)=O)C(OC(C)=O)C1OC(C)=O` (stereo not given), the GI50 in the assay with SK-MEL-5 melanoma is > 66.1 µM and 32.2 µM; in the assay with U251 CNS it was 10.4 µM and 61.4 µM; with COLO 205 colon it was > 100 µM and 49.5 µM; with SK-MEL-2 melanoma, 16 µM and 87 µM; in the assay on NCI-H522 lung it was 27.8 µM and 61.6 µM; in the assay on CAKI-1 renal, greater than 100 µM. Besides, the TGI with SK-MEL-5 melanoma was greater than 100 µM; in the assay with U251 CNS, 40 µM and > 100 µM; with RXF 393 renal, 36.3 µM and 74.5 µM; in the assay with MALME-3M melanoma, greater than 100 µM; with COLO 205 colon, greater than 100 µM; in the assay on A549 NSCLC it was greater than 100 µM. Moreover, the TGI in the assay with SK-MEL-2 melanoma is 45.6 µM and > 100 µM; in the assay with RPMI-8226 leukemia, greater than 100 µM; in the assay with NCI-H522 lung, greater than 100 µM; with CAKI-1 renal, greater than 100 µM.
Take `CC(C)(C)C(=O)c1c(C(F)(F)F)n([O-])c2ccccc2[n+]1=O`: the GI50 with SK-MEL-5 melanoma was 0.24 µM; in the assay on U251 CNS it was 0.341 µM; in the assay on RXF 393 renal, 0.868 µM; in the assay with MALME-3M melanoma it was 0.973 µM; in the assay with COLO 205 colon, 0.616 µM; in the assay on A549 NSCLC, 0.485 µM. Besides, the values for the GI50 with RPMI-8226 leukemia, in the assay on NCI-H522 lung and in the assay with CAKI-1 renal were 0.0234 µM, 0.407 µM and 0.282 µM, respectively. The TGI with SK-MEL-5 melanoma worked out at 0.83 µM; in the assay with U251 CNS, 1.16 µM; with RXF 393 renal, 2.28 µM; in the assay on MALME-3M melanoma it was 2.34 µM; in the assay with COLO 205 colon it was 1.73 µM; in the assay with A549 NSCLC it was 1.26 µM. Moreover, the TGI was determined as 3.23 µM in the assay on SK-MEL-2 melanoma, 0.246 µM in the assay with RPMI-8226 leukemia, 0.924 µM in the assay with NCI-H522 lung and 0.811 µM with CAKI-1 renal.
Regarding `CNC(=O)c1ccc(N2CCN(Cc3ccc4nc(C)c(=O)[nH]c4c3F)CC2)c(F)n1`, the GI50 with SK-MEL-5 melanoma was 30.5 µM; in the assay on U251 CNS, 36.5 µM; with RXF 393 renal, 13.1 µM; in the assay on MALME-3M melanoma, greater than 100 µM; in the assay on COLO 205 colon, greater than 100 µM; with A549 NSCLC, greater than 100 µM. For the same compound, the GI50 is 76.2 µM in the assay on SK-MEL-2 melanoma, greater than 100 µM with RPMI-8226 leukemia, 21.2 µM with NCI-H522 lung and 49.4 µM with CAKI-1 renal. The TGI with SK-MEL-5 melanoma is greater than 100 µM; with U251 CNS, greater than 100 µM; with RXF 393 renal, 62.5 µM; in the assay with MALME-3M melanoma, greater than 100 µM; in the assay with COLO 205 colon, greater than 100 µM; with A549 NSCLC, greater than 100 µM. The TGI in the assay with SK-MEL-2 melanoma, in the assay with RPMI-8226 leukemia, in the assay with NCI-H522 lung and in the assay on CAKI-1 renal was greater than 100 µM throughout.
